Measurements reported in US20250236629A1, “MEDIUM- OR MACRO-CYCLIC BENZYL-SUBSTITUTED HETEROCYCLE DERIVATIVES AND RELATED USES” (CENTESSA PHARMACEUTICALS (UK) LIMITED, priority 2022, published 2025).

biological target: T1, human orexin type 2 receptor (hOX2R) (Homo sapiens, UniProt O43614); assay: Orexin type 2 receptor agonist activity, intracellular Ca2+ (FLIPR TETRA) in CHO cells; type: cell-based; conditions: CHO cells expressing hOX2R; Ca2+ fluorescence area; 100% = 10 nM human orexin A
T1 construct: the Orexin receptor cDNA was inserted into pcDNA3.1(+) plasmid vector; expressed in transfected cells
T1 sequence (O43614 1-444): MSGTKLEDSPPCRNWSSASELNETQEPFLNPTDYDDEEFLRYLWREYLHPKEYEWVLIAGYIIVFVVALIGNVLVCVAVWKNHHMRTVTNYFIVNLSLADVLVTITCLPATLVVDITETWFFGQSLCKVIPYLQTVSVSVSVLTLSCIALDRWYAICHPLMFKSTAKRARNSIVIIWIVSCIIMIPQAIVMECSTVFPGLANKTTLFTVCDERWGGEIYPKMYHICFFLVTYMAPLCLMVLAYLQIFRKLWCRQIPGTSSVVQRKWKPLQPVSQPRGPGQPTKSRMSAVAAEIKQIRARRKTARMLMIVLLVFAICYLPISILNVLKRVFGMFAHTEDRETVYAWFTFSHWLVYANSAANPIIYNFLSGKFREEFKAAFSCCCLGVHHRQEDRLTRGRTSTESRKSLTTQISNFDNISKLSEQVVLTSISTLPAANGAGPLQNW
Procedure: Stable cell line generation. Obtainment of cells stably expressing either human orexin type 2 or human orexin type 1 receptor: to obtain a stable cell line the Orexin receptor cDNA was inserted into pcDNA3.1(+) plasmid vector and clones identified by G418 drug resistance selection. […] A single clone for OX2R—CHO and OX1R—CHO were grown in bulk and frozen to generate a cell bank for routine screening.
Measurement of orexin type 2 receptor agonist activity. Chinese hamster ovary (CHO) cells expressing human orexin type 2 receptor (hOX2R) or human orexin type 1 receptor (hOX1R) were seeded in each well of 384 well black clear bottom plates (BD Flacon) at 10,000 cells per well and cultured for 24 hr in an Ham's F12 (Gibco) medium containing 10% fetal calf serum (Sigma Aldrich) under the conditions of 37° C., 5% CO2. After removal of the medium, 50 μl of assay buffer 1 (0.1% bovine serum albumin (Sigma Aldrich), 20 mM HEPES (Molecular Dimensions), […] probenecid (Sigma Aldrich), 1× Calcium 5 dye (Molecular Devices) in Hank's balanced salt solution (Invitrogen)) was added, and the cells were incubated for 60 min under the conditions of 37° C., 5% CO2. A test compound was dissolved in dimethyl sulfoxide (Sigma Aldrich) to 10 mM, and then diluted with assay buffer 2 (20 mM HEPES, Hank's balanced salt solution, 0.1% bovine serum albumin). For the reaction, a test compound solution (10 μl) was added using Fluorescent Imaging Plate Reader TETRA (FLIPR TETRA: manufactured by Molecular Devices), a fluorescence value (excitation wavelength 488 nm, measurement wavelength 570 nm) of each well was measured every one second for 2 min, and the agonist activity was determined using the area of the fluorescence value as an indicator of intracellular Ca^2+ concentration. The agonist activity of the test compound was calculated assuming that the fluorescence value of the well added with only the dilution buffer was 0% and the fluorescence value of the well added with 10 nM human orexin A (Tocris) buffer was 100%.
Values of hOx2 pEC50 in Table B are presented in ranges, in which 6.0≤“+”<7.0, 7.0≤“++”<8.0, 8.0≤“+++”<9.0, and 9.0≤“++++”<10.4.

“N-((2′S,3′S)-3′-fluoro-6′-methyl-5′-oxospiro[cyclopropane-1,4′-9-oxa-6-aza-4(2,1)-pyrrolidina-1(1,2),2(1,3)-dibenzenacyclononaphan]-3′-yl)ethanesulfonamide [Example 19]” was tested, and the “hOx2 pEC50” value was “+++ (8.0≤“+++”<9.0)”.

same assay, conditions: CHO cells expressing hOX2R; Ca2+ fluorescence area; 100% = 10 nM human orexin A; read-out: hOx2 pEC50 (converted)

Compared with `CN1CCOc2ccccc2-c2cccc(c2F)C[C@H]2[C@@H](NS(=O)(=O)CF)C3(CC3)CN2C1=O` [Example 25, 1-fluoro-N-((2′S,3′S)-2′-fluoro-6′-methyl-5′-oxospiro[cyclopropane-1,4′-9-oxa-6-aza-4(2,1)-pyrrolidina-1(1,2),2(1,3)-dibenzenacyclononaphan]-3′-yl)methanesulfonamide], `CN1CCOc2ccccc2-c2cccc(c2F)C[C@H]2[C@@H](NS(=O)(=O)CF)CCCN2C1=O` [Example 32, 1-fluoro-N-((4^2S,4^3S)-2^2-fluoro-6-methyl-5-oxo-9-oxa-6-aza-4(2,1)-piperidina-1(1,2),2(1,3)-dibenzenacyclononaphane-4^3-yl)methanesulfonamide] is higher in EC50: 1 to 10 nM for the first, 10 to 100 nM for the second.

Compared with `O=C1CCOc2ccccc2-c2cccc(c2)C[C@H]2[C@@H](NS(=O)(=O)C(F)F)CCCN12` [Example 26, 1,1-difluoro-N-((4^2S,4^3S)-5-oxo-8-oxa-4(2,1)-piperidina-1(1,2),2(1,3)-dibenzenacyclooctaphane-4^3-yl)methanesulfonamide], `C[C@@H](F)S(=O)(=O)N[C@H]1CCCN2C(=O)CCOc3ccccc3-c3cccc(c3)C[C@@H]12` [Example 28, (S)-1-fluoro-N-((4^2S,4^3S)-5-oxo-8-oxa-4(2,1)-piperidina-1(1,2),2(1,3)-dibenzenacyclooctaphane-4^3-yl)ethane-1-sulfonamide] is lower in EC50: 1 to 10 nM for the first, 0.0398 to 1 nM for the second.

`CCS(=O)(=O)N[C@H]1CCCN2C(=O)CCOc3ccccc3-c3cccc(c3F)C[C@@H]12` [Example 27, N-((4^2S,4^3S)-22-fluoro-5-oxo-8-oxa-4(2,1)-piperidina-1(1,2),2(1,3)-dibenzenacyclooctaphane-4^3-yl)ethanesulfonamide] and `CC(C)(F)S(=O)(=O)N[C@H]1CCCN2C(=O)CCOc3ccccc3-c3cccc(c3F)C[C@@H]12` [Example 33, 2-fluoro-N-((4^2S,4^3S)-2^2-fluoro-5-oxo-8-oxa-4(2,1)-piperidina-1(1,2),2(1,3)-dibenzenacyclooctaphane-4^3-yl)propane-2-sulfonamide] fall in the same range of EC50: 1 to 10 nM for the first, 1 to 10 nM for the second.

`CCS(=O)(=O)N[C@H]1[C@@H](F)CN2C(=O)CCOc3ccccc3-c3cccc(c3F)C[C@@H]12` [Example 29, N-((4^2S,4^3R,4^4S)-2^2,4^4-difluoro-5-oxo-8-oxa-4(2,1)-pyrrolidina-1(1,2),2(1,3)-dibenzenacyclooctaphane-4^3-yl)ethanesulfonamide] and `CC(C)S(=O)(=O)N[C@H]1[C@@H](F)CN2C(=O)N(C)CCOc3ccccc3-c3cccc(c3F)C[C@@H]12` [Example 35, N-((4^2S,4^3R,4^4S)-2^2,4^4-difluoro-6-methyl-5-oxo-9-oxa-6-aza-4(2,1)-pyrrolidina-1(1,2),2(1,3)-dibenzenacyclononaphane-4^3-yl)propane-2-sulfonamide] fall in the same range of EC50: 1 to 10 nM for the first, 1 to 10 nM for the second.

First: CN1CCOc2c(F)cccc2-c2cccc(c2)C[C@H]2[C@@H](NS(=O)(=O)CF)C3(CC3)CN2C1=O [Example 30, 1-fluoro-N-((2′S,3′S)-3′-fluoro-6′-methyl-5′-oxospiro[cyclopropane-1,4′-9-oxa-6-aza-4(2,1)-pyrrolidina-1(1,2),2(1,3)-dibenzenacyclononaphan]-3′-yl)methanesulfonamide]
Second: CN1CCOc2c(F)cccc2-c2cccc(c2)C[C@H]2[C@@H](NS(=O)(=O)C(F)F)C3(CC3)CN2C1=O [Example 34]
The EC50 of the first is higher: 10 to 100 nM for the first, 1 to 10 nM for the second.

First: CN1CCOc2c(F)cc(F)cc2-c2cccc(c2)C[C@H]2[C@@H](NS(=O)(=O)C(F)F)C3(CC3)CN2C1=O [Example 31, N-((2′S,3′S)-3′,5′-difluoro-6′-methyl-5′-oxospiro[cyclopropane-1,4′-9-oxa-6-aza-4(2,1)-pyrrolidina-1(1,2),2(1,3)-dibenzenacyclononaphan]-3′-yl)-1,1-difluoromethanesulfonamide]
Second: CN1CCOc2c(F)cc(F)cc2-c2cccc(c2F)C[C@H]2[C@@H](NS(=O)(=O)C(F)F)C3(CC3)CN2C1=O [Example 39, 1,1-difluoro-N-((2′S,3′S)-2′,3′,5′-trifluoro-6′-methyl-5′-oxospiro[cyclopropane-1,4′-9-oxa-6-aza-4(2,1)-pyrrolidina-1(1,2),2(1,3)-dibenzenacyclononaphan]-3′-yl)methanesulfonamide]
The EC50 of the first is higher: 10 to 100 nM for the first, 1 to 10 nM for the second.

First: O=C1CCOc2ccccc2-c2cccc(c2F)C[C@H]2[C@@H](NS(=O)(=O)C3(F)CC3)CCCN12 [Example 36, 1-fluoro-N-((4^2S,4^3S)-2^2-fluoro-5-oxo-8-oxa-4(2,1)-piperidina-1(1,2),2(1,3)-dibenzenacyclooctaphane-4^3-yl)cyclopropane-1-sulfonamide]
Second: O=C1CCOc2ccccc2-c2cccc(c2)C[C@H]2[C@@H](NS(=O)(=O)C3(F)CC3)CCCN12 [Example 50, 1-fluoro-N-((4^2S,4^3S)-5-oxo-8-oxa-4 (2,1)-piperidina-1 (1,2),2 (1,3)-dibenzenacyclooctaphane-4^3-yl)cyclopropane-1-sulfonamide]
The EC50 of the first is higher: 1 to 10 nM for the first, 0.0398 to 1 nM for the second.

First: CCN1CCOc2ccccc2-c2cccc(c2)C[C@H]2[C@@H](NS(=O)(=O)CF)C3(CC3)CN2C1=O [Example 37, N-((2′S,3′S)-6′-ethyl-5′-oxospiro[cyclopropane-1,4′-9-oxa-6-aza-4(2,1)-pyrrolidina-1(1,2),2(1,3)-dibenzenacyclononaphan]-3′-yl)-1-fluoromethanesulfonamide]
Second: CN1CCOc2ccccc2-c2cccc(c2)C[C@H]2[C@@H](NS(=O)(=O)C(C)(C)F)C3(CC3)CN2C1=O [Example 38, 2-fluoro-N-((2′S,3′S)-6′-methyl-5′-oxospiro[cyclopropane-1,4′-9-oxa-6-aza-4(2,1)-pyrrolidina-1(1,2),2(1,3)-dibenzenacyclononaphan]-3′-yl)propane-2-sulfonamide]
The EC50 of the first is lower: 0.0398 to 1 nM for the first, 1 to 10 nM for the second.

First: CN1CCOc2c(F)cc(F)cc2-c2cccc(c2F)C[C@H]2[C@@H](NS(=O)(=O)CF)C3(CC3)CN2C1=O [Example 40, 1-fluoro-N-((2′S,3′S)-2′,3′,5′-trifluoro-6′-methyl-5′-oxospiro[cyclopropane-1,4′-9-oxa-6-aza-4(2,1)-pyrrolidina-1(1,2),2(1,3)-dibenzenacyclononaphan]-3′-yl)methanesulfonamide]
Second: O=C1CCOc2c(F)cccc2-c2cccc(c2)C[C@H]2[C@@H](NS(=O)(=O)C3(F)CC3)[C@@H](F)CCN12 [Example 46, N-((4^2S,4^3R,4^4S)-1^3,4^4-difluoro-5-oxo-8-oxa-4 (2,1)-piperidina-1 (1,2),2 (1,3)-dibenzenacyclooctaphane-4^3-yl)-1-fluorocyclopropane-1-sulfonamide]
The EC50 of the first is higher: 1 to 10 nM for the first, 0.0398 to 1 nM for the second.

`O=C1CCOc2ccccc2-c2cccc(c2)C[C@H]2[C@@H](NS(=O)(=O)C3(F)CC3)[C@@H](F)CCN12` [Example 45, 1-fluoro-N-((4^2S,4^3R,4^4S)-4^4-fluoro-5-oxo-8-oxa-4 (2,1)-piperidina-1 (1,2),2 (1,3)-dibenzenacyclooctaphane-4^3-yl)cyclopropane-1-sulfonamide] showed an EC50 of 1 to 10 nM.
